These molecules were tested on Streptococcus pyogenes (assay: Antimicrobial activity against Streptococcus pyogenes […] by NCCLS method).
Format: functional

First: C=C[C@]1(C)C[C@@H](OC(=O)CSC2CCCN(C(=O)CCn3cnc4c(N5CCC(N)C5)ncnc43)C2)[C@]2(C)[C@H](C)CC[C@]3(CCC(=O)[C@@H]32)[C@@H](C)[C@@H]1O.Cl (stereo partly specified)
Second: C=C[C@]1(C)C[C@@H](OC(=O)CSC2CN(C(=O)CCn3cnc4c(N5CCNCC5)nc(N)nc43)C2)[C@]2(C)[C@H](C)CC[C@]3(CCC(=O)[C@@H]32)[C@@H](C)[C@@H]1O.Cl
The MIC of the first is higher: 0.008 µg/mL for the first, at most 0.004 µg/mL for the second.

Going from `C=C[C@]1(C)C[C@@H](OC(=O)CN(C)CCN(C)C(=O)CCn2cnc3c(N4CCC(N)C4)ncnc32)[C@]2(C)[C@H](C)CC[C@]3(CCC(=O)[C@@H]32)[C@@H](C)[C@@H]1O.Cl.Cl` (stereo partly specified) to `C=C[C@]1(C)C[C@@H](OC(=O)CSCC2CCN(C(=O)CCn3cnc4c(N5CCNCC5)nc(N)nc43)CC2)[C@]2(C)[C@H](C)CC[C@]3(CCC(=O)[C@@H]32)[C@@H](C)[C@@H]1O.Cl`, the MIC falls from 0.063 µg/mL to 0.016 µg/mL (3.9-fold).

What follows are molecules tested on Streptococcus pneumoniae (assay: Antimicrobial activity against penicillin-resistant Streptococcus pneumoniae KT2524 by NCCLS method).
Format: functional

First: C=C[C@]1(C)C[C@@H](OC(=O)CSC2CCCN(C(=O)CCn3cnc4c(N5CCC(N)C5)ncnc43)C2)[C@]2(C)[C@H](C)CC[C@]3(CCC(=O)[C@@H]32)[C@@H](C)[C@@H]1O.Cl (stereo partly specified)
Second: C=C[C@]1(C)C[C@@H](OC(=O)CSC2CN(C(=O)CCn3cnc4c(N5CCNCC5)nc(N)nc43)C2)[C@]2(C)[C@H](C)CC[C@]3(CCC(=O)[C@@H]32)[C@@H](C)[C@@H]1O.Cl
The MIC of the first is 16-fold lower: 0.016 µg/mL for the first, 0.25 µg/mL for the second.

First: C=C[C@]1(C)C[C@@H](OC(=O)CN(C)CCN(C)C(=O)CCn2cnc3c(N4CCC(N)C4)ncnc32)[C@]2(C)[C@H](C)CC[C@]3(CCC(=O)[C@@H]32)[C@@H](C)[C@@H]1O.Cl.Cl (stereo partly specified)
Second: C=C[C@]1(C)C[C@@H](OC(=O)CSCC2CCN(C(=O)CCn3cnc4c(N5CCNCC5)nc(N)nc43)CC2)[C@]2(C)[C@H](C)CC[C@]3(CCC(=O)[C@@H]32)[C@@H](C)[C@@H]1O.Cl
The MIC of the first is 3.9-fold higher: 0.125 µg/mL for the first, 0.032 µg/mL for the second.

Each molecule was assayed on Staphylococcus aureus (assay: Antimicrobial activity against methicillin-susceptible Staphylococcus aureus Smith by NCCLS method).
Format: functional

First: C=C[C@]1(C)C[C@@H](OC(=O)CSC2CCCN(C(=O)CCn3cnc4c(N5CCC(N)C5)ncnc43)C2)[C@]2(C)[C@H](C)CC[C@]3(CCC(=O)[C@@H]32)[C@@H](C)[C@@H]1O.Cl (stereo partly specified)
Second: C=C[C@]1(C)C[C@@H](OC(=O)CSC2CN(C(=O)CCn3cnc4c(N5CCNCC5)nc(N)nc43)C2)[C@]2(C)[C@H](C)CC[C@]3(CCC(=O)[C@@H]32)[C@@H](C)[C@@H]1O.Cl
The MIC of the first is 2-fold lower: 0.25 µg/mL for the first, 0.5 µg/mL for the second.

Going from `C=C[C@]1(C)C[C@@H](OC(=O)CN(C)CCN(C)C(=O)CCn2cnc3c(N4CCC(N)C4)ncnc32)[C@]2(C)[C@H](C)CC[C@]3(CCC(=O)[C@@H]32)[C@@H](C)[C@@H]1O.Cl.Cl` (stereo partly specified) to `C=C[C@]1(C)C[C@@H](OC(=O)CSCC2CCN(C(=O)CCn3cnc4c(N5CCNCC5)nc(N)nc43)CC2)[C@]2(C)[C@H](C)CC[C@]3(CCC(=O)[C@@H]32)[C@@H](C)[C@@H]1O.Cl`, the MIC falls from 1 µg/mL to 0.25 µg/mL (4-fold).

Each molecule was assayed on Staphylococcus aureus (assay: Antimicrobial activity against methicillin-resistant Staphylococcus aureus KMP9).
Format: functional

Compared with `C=C[C@]1(C)C[C@@H](OC(=O)CSC2CCCN(C(=O)CCn3cnc4c(N5CCC(N)C5)ncnc43)C2)[C@]2(C)[C@H](C)CC[C@]3(CCC(=O)[C@@H]32)[C@@H](C)[C@@H]1O.Cl` (stereo partly specified), `C=C[C@]1(C)C[C@@H](OC(=O)CSC2CN(C(=O)CCn3cnc4c(N5CCNCC5)nc(N)nc43)C2)[C@]2(C)[C@H](C)CC[C@]3(CCC(=O)[C@@H]32)[C@@H](C)[C@@H]1O.Cl` is 4-fold higher in MIC: 0.5 µg/mL for the first, 2 µg/mL for the second.

Going from `C=C[C@]1(C)C[C@@H](OC(=O)CN(C)CCN(C)C(=O)CCn2cnc3c(N4CCC(N)C4)ncnc32)[C@]2(C)[C@H](C)CC[C@]3(CCC(=O)[C@@H]32)[C@@H](C)[C@@H]1O.Cl.Cl` (stereo partly specified) to `C=C[C@]1(C)C[C@@H](OC(=O)CSCC2CCN(C(=O)CCn3cnc4c(N5CCNCC5)nc(N)nc43)CC2)[C@]2(C)[C@H](C)CC[C@]3(CCC(=O)[C@@H]32)[C@@H](C)[C@@H]1O.Cl`, the MIC falls from 4 µg/mL to 0.5 µg/mL (8-fold).

The molecules below were run on Streptococcus pneumoniae (assay: Antimicrobial activity against penicillin-susceptible Streptococcus pneumoniae ATCC 49619 by NCCLS method).
Format: functional

Going from `C=C[C@]1(C)C[C@@H](OC(=O)CSC2CCCN(C(=O)CCn3cnc4c(N5CCC(N)C5)ncnc43)C2)[C@]2(C)[C@H](C)CC[C@]3(CCC(=O)[C@@H]32)[C@@H](C)[C@@H]1O.Cl` (stereo partly specified) to `C=C[C@]1(C)C[C@@H](OC(=O)CSC2CN(C(=O)CCn3cnc4c(N5CCNCC5)nc(N)nc43)C2)[C@]2(C)[C@H](C)CC[C@]3(CCC(=O)[C@@H]32)[C@@H](C)[C@@H]1O.Cl`, the MIC rises from 0.016 µg/mL to 0.125 µg/mL (7.8-fold).

Going from `C=C[C@]1(C)C[C@@H](OC(=O)CN(C)CCN(C)C(=O)CCn2cnc3c(N4CCC(N)C4)ncnc32)[C@]2(C)[C@H](C)CC[C@]3(CCC(=O)[C@@H]32)[C@@H](C)[C@@H]1O.Cl.Cl` (stereo partly specified) to `C=C[C@]1(C)C[C@@H](OC(=O)CSCC2CCN(C(=O)CCn3cnc4c(N5CCNCC5)nc(N)nc43)CC2)[C@]2(C)[C@H](C)CC[C@]3(CCC(=O)[C@@H]32)[C@@H](C)[C@@H]1O.Cl`, the MIC falls from 0.063 µg/mL to 0.032 µg/mL (2-fold).

These molecules were tested on Enterococcus faecium (assay: Antimicrobial activity against vancomycin-resistant Enterococcus faecium KU1778 by NCCLS method).
Format: functional

First: C=C[C@]1(C)C[C@@H](OC(=O)CSC2CCCN(C(=O)CCn3cnc4c(N5CCC(N)C5)ncnc43)C2)[C@]2(C)[C@H](C)CC[C@]3(CCC(=O)[C@@H]32)[C@@H](C)[C@@H]1O.Cl (stereo partly specified)
Second: C=C[C@]1(C)C[C@@H](OC(=O)CSC2CN(C(=O)CCn3cnc4c(N5CCNCC5)nc(N)nc43)C2)[C@]2(C)[C@H](C)CC[C@]3(CCC(=O)[C@@H]32)[C@@H](C)[C@@H]1O.Cl
The MIC of the first is 7.9-fold lower: 0.063 µg/mL for the first, 0.5 µg/mL for the second.

First: C=C[C@]1(C)C[C@@H](OC(=O)CN(C)CCN(C)C(=O)CCn2cnc3c(N4CCC(N)C4)ncnc32)[C@]2(C)[C@H](C)CC[C@]3(CCC(=O)[C@@H]32)[C@@H](C)[C@@H]1O.Cl.Cl (stereo partly specified)
Second: C=C[C@]1(C)C[C@@H](OC(=O)CSCC2CCN(C(=O)CCn3cnc4c(N5CCNCC5)nc(N)nc43)CC2)[C@]2(C)[C@H](C)CC[C@]3(CCC(=O)[C@@H]32)[C@@H](C)[C@@H]1O.Cl
The MIC of the first is 16-fold higher: 1 µg/mL for the first, 0.063 µg/mL for the second.

The molecules below were run on Moraxella catarrhalis (assay: Antimicrobial activity against Moraxella catarrhalis K1209 by NCCLS method).
Format: functional

First: C=C[C@]1(C)C[C@@H](OC(=O)CSC2CCCN(C(=O)CCn3cnc4c(N5CCC(N)C5)ncnc43)C2)[C@]2(C)[C@H](C)CC[C@]3(CCC(=O)[C@@H]32)[C@@H](C)[C@@H]1O.Cl (stereo partly specified)
Second: C=C[C@]1(C)C[C@@H](OC(=O)CSC2CN(C(=O)CCn3cnc4c(N5CCNCC5)nc(N)nc43)C2)[C@]2(C)[C@H](C)CC[C@]3(CCC(=O)[C@@H]32)[C@@H](C)[C@@H]1O.Cl
The MIC of the first is 2-fold lower: 0.063 µg/mL for the first, 0.125 µg/mL for the second.

Going from `C=C[C@]1(C)C[C@@H](OC(=O)CN(C)CCN(C)C(=O)CCn2cnc3c(N4CCC(N)C4)ncnc32)[C@]2(C)[C@H](C)CC[C@]3(CCC(=O)[C@@H]32)[C@@H](C)[C@@H]1O.Cl.Cl` (stereo partly specified) to `C=C[C@]1(C)C[C@@H](OC(=O)CSCC2CCN(C(=O)CCn3cnc4c(N5CCNCC5)nc(N)nc43)CC2)[C@]2(C)[C@H](C)CC[C@]3(CCC(=O)[C@@H]32)[C@@H](C)[C@@H]1O.Cl`, the MIC falls from 0.25 µg/mL to 0.125 µg/mL (2-fold).

The molecules below were run on Haemophilus influenzae (assay: Antimicrobial activity against Haemophilus influenzae TH13 by NCCLS method).
Format: functional

`C=C[C@]1(C)C[C@@H](OC(=O)CSC2CCCN(C(=O)CCn3cnc4c(N5CCC(N)C5)ncnc43)C2)[C@]2(C)[C@H](C)CC[C@]3(CCC(=O)[C@@H]32)[C@@H](C)[C@@H]1O.Cl` (stereo partly specified) and `C=C[C@]1(C)C[C@@H](OC(=O)CSC2CN(C(=O)CCn3cnc4c(N5CCNCC5)nc(N)nc43)C2)[C@]2(C)[C@H](C)CC[C@]3(CCC(=O)[C@@H]32)[C@@H](C)[C@@H]1O.Cl` are the same in MIC: 2 µg/mL for the first, 2 µg/mL for the second.

Going from `C=C[C@]1(C)C[C@@H](OC(=O)CN(C)CCN(C)C(=O)CCn2cnc3c(N4CCC(N)C4)ncnc32)[C@]2(C)[C@H](C)CC[C@]3(CCC(=O)[C@@H]32)[C@@H](C)[C@@H]1O.Cl.Cl` (stereo partly specified) to `C=C[C@]1(C)C[C@@H](OC(=O)CSCC2CCN(C(=O)CCn3cnc4c(N5CCNCC5)nc(N)nc43)CC2)[C@]2(C)[C@H](C)CC[C@]3(CCC(=O)[C@@H]32)[C@@H](C)[C@@H]1O.Cl`, the MIC falls from 8 µg/mL to 4 µg/mL (2-fold).

What follows are molecules tested on Staphylococcus aureus (assay: Antimicrobial activity against methicillin-susceptible Staphylococcus aureus infected mouse assessed as survival rate administered iv after 1 hr of infection).
Format: functional

Compared with `C=C[C@]1(C)C[C@@H](OC(=O)CSC2CCCN(C(=O)CCn3cnc4c(N5CCC(N)C5)ncnc43)C2)[C@]2(C)[C@H](C)CC[C@]3(CCC(=O)[C@@H]32)[C@@H](C)[C@@H]1O.Cl` (stereo partly specified), `C=C[C@]1(C)C[C@@H](OC(=O)CSC2CN(C(=O)CCn3cnc4c(N5CCNCC5)nc(N)nc43)C2)[C@]2(C)[C@H](C)CC[C@]3(CCC(=O)[C@@H]32)[C@@H](C)[C@@H]1O.Cl` is 2-fold higher in ED50: 2.02 mg/kg for the first, 4.07 mg/kg for the second.

Compared with `C=C[C@]1(C)C[C@@H](OC(=O)CN(C)CCN(C)C(=O)CCn2cnc3c(N4CCC(N)C4)ncnc32)[C@]2(C)[C@H](C)CC[C@]3(CCC(=O)[C@@H]32)[C@@H](C)[C@@H]1O.Cl.Cl` (stereo partly specified), `C=C[C@]1(C)C[C@@H](OC(=O)CSCC2CCN(C(=O)CCn3cnc4c(N5CCNCC5)nc(N)nc43)CC2)[C@]2(C)[C@H](C)CC[C@]3(CCC(=O)[C@@H]32)[C@@H](C)[C@@H]1O.Cl` is lower in ED50: over 3.13 mg/kg for the first, 2.77 mg/kg for the second.
